Experimental data published in patent US11458132B2, “Quinolin-2(1H)-one inhibitors of Late SV40 Factor” (TRUSTEES OF BOSTON UNIVERSITY, priority 2020, dated 2022).

Legend:
FH-B cells [1] = test: Cell motility tracking; type: cell-based, human; conditions: thymidine block, 4 μM FQI1
Description: Cell motility tracking: After overnight seeding in high μ-dishes, cells were synchronized by incubating in 2 mM thymidine for 18-20 hours. Thereafter, cells were treated with 4 μM FQI1 or vehicle (0.01% DMSO) for 1 hour, followed by a 10-min incubation in NucSpot® Live 650 dye (Biotium, 40082) following the manufacturer's instructions. Subsequently, cells were imaged every 2 minutes for 2 hours in an environmental chamber of a Nikon C2 Si microscope at 37° C. and 5% CO2 at 20× magnification. Cells that underwent mitosis during the 2-hour period were excluded from the analysis. Using ImageJ, individual nuclei were monitored using the Manual Tracking tool and the distances between starting and end points were integrated into swarmplots using Python's seaborn library.

FH-B cells [2] = test: Analysis of microtubule features by immunofluorescence; type: cell-based, human
Description: Analysis of microtubule features by immunofluorescence: Because Y-27632 diminishes FQI1-induced cell compaction (FIGS. 10C and 10D) without affecting microtubule levels (FIGS. 9A and 9B), cells were pretreated with Y-27632 in order to maintain overall cellular shape, facilitating capture of structural or positional impact of FQI1 on microtubules. In addition, only cells with cell spreading areas larger than 1000 μm^2 were considered. Cells were seeded overnight in high n-dishes, treated as indicated in the figure legends, fixed with formaldehyde as described above, blocked in 5% BSA in PBS and stained overnight at 4° C. with anti-γ-tubulin (1:500, Abcam, ab11316) and anti-α-tubulin (1:500, Fisher Scientific, 62204). Samples were then incubated in goat anti-rabbit Cy5 (1:1000, Invitrogen, A10523), goat anti-mouse Alexa Fluor 546 (1:1000, Thermo Fisher Scientific, A11003), and Phalloidin-iFluor 488 Reagent. Hoechst 33342 and mounting medium were applied, before acquiring Z stack images at 60× magnification on an Olympus Fluoview 10i microscope.
Using ImageJ, binary Z projections of Phalloidin and Hoechst channel stacks were merged with Z projections with average intensity of the α-tubulin channels. The Phalloidin channel was used as the region of interest for measurement of “integrated density” of the total α-tubulin intensity, which was plotted into swarmplots.
To assess distribution of visible microtubule ends, the Hoechst, γ-tubulin, and α-tubulin stacks were converted into Z projections with maximum intensity. The Hoechst and γ-tubulin Z projections were thresholded and all channels were merged. A line was generated between the γ-tubulin signal and the center of the nucleus to identify the axis of cell movement; a line perpendicular to the first line and running through the center point of the nucleus divided the cell into posterior and anterior portions. Visible microtubule ends were counted using the Cell Counter plugin, excluding unattached microtubule fragments.

LSF = biological target: T1, LSF (Homo sapiens, UniProt Q12800); test: Cellular thermal shift assay (CETSA) in Huh7 cells; type: binding; conditions: 50 μM, three hours, vs DMSO
T1 construct: Representative immunoblots of soluble LSF after treatment with FQI2-34 versus DMSO; endogenous in cells; host or cells: Huh7
T1 sequence (Q12800 1-502): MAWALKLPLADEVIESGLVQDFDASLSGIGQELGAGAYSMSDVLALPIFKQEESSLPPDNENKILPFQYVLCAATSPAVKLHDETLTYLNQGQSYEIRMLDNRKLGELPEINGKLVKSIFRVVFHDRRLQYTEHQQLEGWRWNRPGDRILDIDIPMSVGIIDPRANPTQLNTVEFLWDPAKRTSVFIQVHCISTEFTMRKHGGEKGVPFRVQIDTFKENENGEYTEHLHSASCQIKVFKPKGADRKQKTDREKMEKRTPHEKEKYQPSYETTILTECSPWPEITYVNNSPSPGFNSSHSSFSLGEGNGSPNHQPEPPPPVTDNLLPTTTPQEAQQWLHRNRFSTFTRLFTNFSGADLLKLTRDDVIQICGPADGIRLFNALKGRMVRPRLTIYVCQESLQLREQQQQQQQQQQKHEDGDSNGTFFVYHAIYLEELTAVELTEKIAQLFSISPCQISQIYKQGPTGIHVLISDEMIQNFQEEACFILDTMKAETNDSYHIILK
Description: Cellular Thermal Shift Assay (CETSA): Huh7 cells obtained from JCRB (Japanese Cancer Resources Bank) were cultured in DMEM medium (Corning) supplemented with 10% fetal bovine serum (Gibco). The cells were cultured at 37° C. in 5% CO2. Approximately 9×10^5 Huh7 cells were plated per 10 cm plate. After 20 hours, cells were treated for three hours with fresh media containing 50 μM FQI1, 50 μM FQI2-34, or 0.1% DMSO (FQI1 control) or 0.5% DMSO (FQI2-34 control). Subsequently, the cells were washed with PBS (137 mM NaCl, 2.7 mM KCl, 10 mM Na2HPO4, 2 mM KH2PO4, pH 7.2) supplemented with their respective treatments (FQI1, FQI2-34, or vehicle) and scraped from the dish in the presence of 5 mL of PBS supplemented with 1 mM Pefabloc (Sigma-Aldrich, 76307) plus the respective treatment. Pelleted cells were resuspended in 500 μL of PBS buffer with 1 mM Pefabloc plus the respective treatment. Aliquots of 50 μL of cell suspension from each treatment sample were incubated separately at the indicated temperatures for 3 minutes in a thermal cycler (Bio-rad, T100 Thermocyler), then cooled at the room temperature for 3 minutes. Lysates were prepared by four rounds of snap freezing and thawing. […] Films were scanned and band intensities were quantified by densitometry with Image J; a non-parametric t-test was used to determine statistical significance.

SMILES	cell displacement over a 2-hour period (FH-B cells [1])	anterior-posterior patterning of visible microtubule ends (FH-B cells [2]; 4 μM FQI1)	overall α-tubulin intensity (FH-B cells [2]; 4 μM FQI1, 30 minutes, Y-27632 pretreated)	increase in the number of individually discernible microtubule ends (FH-B cells [2]; 4 μM FQI1, 30 minutes, vs vehicle)	stability of LSF to thermal denaturation (LSF)
CCOc1ccccc1C1CC(=O)Nc2cc3c(cc21)OCO3 (stereo not drawn) [FQI1, 8-(2-ethoxyphenyl)-7,8-dihydro-[1,3]dioxolo[4,5-g]quinolin-6(5H)-one]	significantly smaller range of motion	largely unaffected	significant decrease in overall α-tubulin intensity	2.7 fold	enhanced the stability of LSF to thermal denaturation
CCOc1cc(N(C)C)ccc1-c1cc(=O)[nH]c2cc3c(cc12)OCO3 [FQI2-34, 8-(4-(dimethylamino)-2-ethoxyphenyl)-[1,3]dioxolo[4,5-g]quinolin-6(5H)-one]	–	–	–	–	enhanced the stability of LSF to thermal denaturation
